This passage reports GI50 results from patent publication US11987575B2, “Tricyclic compounds as BCR-ABL inhibitors” (ASCENTAGE PHARMA (SUZHOU) CO., LTD., priority 2019, dated 2024).

In one experiment the target is BaF3(WT) (Homo sapiens, UniProt P00519). As to the kind of experiment: WST (CCK-8) anti-proliferative assay, BaF3 WT. The settings on record: read-out: BaF3(WT); BaF3 WT cells, 72 h treatment, CCK-8 readout OD 450 nm.
In the next experiment the target is BaF3 (T315I mutant) (Homo sapiens, UniProt P00519, T315I, cells depend on it). As to the kind of experiment: WST (CCK-8) anti-proliferative assay, BaF3 T315I mutant. The settings on record: read-out: BaF3 (T315I mutant), 72 h treatment, CCK-8 readout OD 450 nm.

Procedure for BaF3 (T315I mutant): (§1) The anti-proliferative effect of representative compounds of the present disclosure was determined by a water-soluble tetrazolium (WST)-based assay using Cell Counting Kit-8 (CCK-8). Cells were seeded in 96-well plates and treated with different concentrations of test articles for 72 h. Each treatment was tested in triplicate. Briefly, a series of 9 concentrations were chosen for each test article and added at 100 μl/well into a 96-well plate. Each concentration was tested in triplicate. 100 μl of diluent was added into 3-6 wells in the same plate for cell control group, and another set of 3-6 wells was used as a blank control.
(§2) In each well, 100 μl of cell suspension (containing optimal cell numbers, which creates approximately 100% confluence of cells in control wells based on by the absorbance (OD) value) was dispensed into the same 96-well plate except for the blank well. The plate was then cultured at 37° C. in an incubator in an atmosphere with 5% CO2 for 72 h. At the end of the treatments, 20 μl/well of CCK-8 reagent was directly added to each well. The plate was then incubated at 37° C. in an incubator in an atmosphere with 5% CO2 for 2-4 hours.
(§3) The cells viability was calculated using the mean OD value of triplicated wells following the equation below: (OD sample−OD blank)/(OD cell control−OD blank)×100 IC50 values were calculated with Graphpad Prism 6.0 software using nonlinear regression (curve fitting) type data analysis.
Procedure for BaF3(WT): as §1, §2, §3

On to `CC(=O)NC1CCC2c3cc(C(=O)Nc4ccc(OC(F)(F)Cl)cc4)cc(-c4cc[nH]n4)c3N(CC3(C)CC3)C12` (centres unmarked) [Compound 45], for which the GI50 was found to be 18 nM at BaF3(WT) and 111 nM on BaF3 (T315I mutant).
Consider `CC(=O)N[C@@H]1CC[C@H]2c3cc(C(=O)Nc4ccc(OC(F)(F)Cl)cc4)cc(-c4cncc(F)c4)c3N(C(C)C)[C@@H]12` [Compound 46-A], for which the GI50 on BaF3(WT) turned out to be 2 nM; on BaF3 (T315I mutant), 8 nM.
`CC(=O)N[C@@H]1CC[C@H]2c3cc(C(=O)Nc4ccc(OC(F)(F)Cl)cc4)cc(-c4ccc(C#N)nc4)c3N(C(C)C)[C@@H]12` [Compound 47-A]: the values for the GI50 at BaF3(WT) and on BaF3 (T315I mutant) were 5 nM and 13 nM, respectively.
Take `CC(=O)N[C@@H]1CC[C@H]2c3cc(C(=O)Nc4ccc(OC(F)(F)Cl)cc4)cc(-c4cc(F)cc(C#N)c4)c3N(C(C)C)[C@@H]12` [Compound 48-A]: the GI50 on BaF3(WT) was determined as 2 nM; at BaF3 (T315I mutant), 14 nM.
On the same counts, the results for `CC(=O)NC1CCC2c3cc(C(=O)Nc4ccc(OC(F)(F)Cl)cc4)cc(-c4cc[nH]n4)c3N(CC(F)(F)F)C12` (centres unmarked) [Compound 49] are 72 nM and 125 nM.
With `CC(=O)N[C@@H]1CC[C@H]2c3cc(C(=O)Nc4ccc(OC(F)(F)Cl)cc4)cc(-c4cncc(C)c4)c3N(C(C)C)[C@@H]12` [Compound 50-A], the GI50 at BaF3(WT) turned out to be 4 nM; on BaF3 (T315I mutant), 39 nM.
For `COc1cncc(-c2cc(C(=O)Nc3ccc(OC(F)(F)Cl)cc3)cc3c2N(C(C)C)[C@H]2[C@H](NC(C)=O)CC[C@@H]32)c1` [Compound 51-A], the figures for the GI50 on BaF3(WT) and at BaF3 (T315I mutant) were 12 nM and 116 nM, respectively.
The like results for `CC(=O)N[C@@H]1CC[C@H]2c3cc(C(=O)Nc4ccc(OC(F)(F)Cl)cc4)cc(-c4cncc(Cl)c4)c3N(C(C)C)[C@@H]12` [Compound 52-A] were, in that order, 3 nM and 47 nM.
As for `CC(=O)N[C@@H]1CC[C@H]2c3cc(C(=O)Nc4ccc(OC(F)(F)Cl)cc4)cc(-c4cncc(C#N)c4)c3N(C(C)C)[C@@H]12` [Compound 53-A], the GI50 on BaF3(WT) amounted to 3 nM; on BaF3 (T315I mutant), 16 nM.
The like results for `CC(C)N1c2c(-c3ccn[nH]3)cc(C(=O)Nc3ccc(OC(F)(F)Cl)cc3)cc2[C@@H]2CCS(=O)(=O)C[C@@H]21` [Compound 54-A, (4aS,9aR)-N-(4-(chlorodifluoromethoxy)phenyl)-9-isopropyl-8-(1H-pyrazol-5-yl)-1,3,4,4a,9,9a-hexahydrothiopyrano[3,4-b]indole-6-carboxamide 2,2-dioxide] were, in that order, 8 nM and 45 nM.
In the case of `CC(=O)N[C@@H]1CC[C@H]2c3cc(C(=O)Nc4ccc(OC(F)(F)Cl)cc4)cc(-c4ccccn4)c3N(CC(C)(C)C)[C@@H]12` [Compound 56-A], the GI50 at BaF3(WT) turned out to be 56 nM; at BaF3 (T315I mutant) it was 440 nM.
On the same counts, the results for `CC(=O)N[C@@H]1CC[C@H]2c3cc(C(=O)Nc4ccc(OC(F)(F)Cl)cc4)cc(-c4ccncn4)c3N(CC(C)(C)C)[C@@H]12` [Compound 57-A] are 97 nM and 316 nM.
Consider `CC(=O)N[C@@H]1CC[C@H]2c3cc(C(=O)Nc4ccc(OC(F)(F)Cl)cc4)cc(-c4cnccn4)c3N(CC(C)(C)C)[C@@H]12` [Compound 58-A], for which the GI50 on BaF3(WT) is 18 nM; at BaF3 (T315I mutant) it was 80 nM.
On the same counts, the results for `CC(=O)N[C@@H]1CC[C@H]2c3cc(C(=O)Nc4ccc(OC(F)(F)Cl)cc4)cc(-c4cccnn4)c3N(CC(C)(C)C)[C@@H]12` [Compound 59-A] are 65 nM and 122 nM.
On to `CC(=O)N[C@@H]1CC[C@H]2c3cc(C(=O)Nc4ccc(OC(F)(F)Cl)cc4)cc(-c4ccc(C)nc4)c3N(CC(C)(C)C)[C@@H]12` [Compound 60-A], for which the figures for the GI50 on BaF3(WT) and at BaF3 (T315I mutant) were 13 nM and 92 nM, respectively.
As to `CC(=O)N[C@@H]1CC[C@H]2c3cc(C(=O)Nc4ccc(OC(F)(F)Cl)cc4)cc(-c4cnc(C)nc4)c3N(CC(C)(C)C)[C@@H]12` [Compound 61-A], the results for the GI50 at BaF3(WT) and on BaF3 (T315I mutant) were 11 nM and 56 nM, respectively.
